Measurements published in paper PMC9851200, “Multiparameter phenotypic screening for endogenous TFEB and TFE3 translocation identifies novel chemical series modulating lysosome function” (Autophagy, 2022).
Like-named read-outs stand apart in the source and are kept apart here.

Assays:
Experiment in all cases: biochemical
Format in all cases: binding
[1] = target: T1, cellular kinases of SH-SY5Y cells (Homo sapiens, UniProt O14733); conditions: 2µM; SH-SY5Y cells; labeling site Lys2; peptide DVKPSNILLDER
T1 construct: endogenous in cells; host or cells: SH-SY5Y
Excerpt: (§1) As KINOMEscan is an in vitro assay, and as different cell types have variable kinase expression profiles we sought to determine the kinase binding profile in our SH-SY5Y TFEB-relocalization cell model. […] Bound kinases were pulled down and analyzed by mass spectrometry to determine the in situ kinase binding profile for each compound.

[2] = target: T2, cellular kinases of SH-SY5Y cells (Homo sapiens, UniProt O15111); conditions: 2µM; SH-SY5Y cells; Labeling Site Lys2; DLKPENIVLQDVGGK; read-out: KiNativ in-cell binding, % Inhibition, CHUK/IKKa
T2 construct: endogenous in cells; host or cells: SH-SY5Y
Excerpt: as §1

[3] = target: T3, cellular kinases of SH-SY5Y cells (Homo sapiens, UniProt O95835); conditions: 2µM, SH-SY5Y cells, read-out: KiNativ in-cell binding, % Inhibition, LATS1
T3 construct: endogenous in cells; host or cells: SH-SY5Y
T3 sequence (O95835 whole entry): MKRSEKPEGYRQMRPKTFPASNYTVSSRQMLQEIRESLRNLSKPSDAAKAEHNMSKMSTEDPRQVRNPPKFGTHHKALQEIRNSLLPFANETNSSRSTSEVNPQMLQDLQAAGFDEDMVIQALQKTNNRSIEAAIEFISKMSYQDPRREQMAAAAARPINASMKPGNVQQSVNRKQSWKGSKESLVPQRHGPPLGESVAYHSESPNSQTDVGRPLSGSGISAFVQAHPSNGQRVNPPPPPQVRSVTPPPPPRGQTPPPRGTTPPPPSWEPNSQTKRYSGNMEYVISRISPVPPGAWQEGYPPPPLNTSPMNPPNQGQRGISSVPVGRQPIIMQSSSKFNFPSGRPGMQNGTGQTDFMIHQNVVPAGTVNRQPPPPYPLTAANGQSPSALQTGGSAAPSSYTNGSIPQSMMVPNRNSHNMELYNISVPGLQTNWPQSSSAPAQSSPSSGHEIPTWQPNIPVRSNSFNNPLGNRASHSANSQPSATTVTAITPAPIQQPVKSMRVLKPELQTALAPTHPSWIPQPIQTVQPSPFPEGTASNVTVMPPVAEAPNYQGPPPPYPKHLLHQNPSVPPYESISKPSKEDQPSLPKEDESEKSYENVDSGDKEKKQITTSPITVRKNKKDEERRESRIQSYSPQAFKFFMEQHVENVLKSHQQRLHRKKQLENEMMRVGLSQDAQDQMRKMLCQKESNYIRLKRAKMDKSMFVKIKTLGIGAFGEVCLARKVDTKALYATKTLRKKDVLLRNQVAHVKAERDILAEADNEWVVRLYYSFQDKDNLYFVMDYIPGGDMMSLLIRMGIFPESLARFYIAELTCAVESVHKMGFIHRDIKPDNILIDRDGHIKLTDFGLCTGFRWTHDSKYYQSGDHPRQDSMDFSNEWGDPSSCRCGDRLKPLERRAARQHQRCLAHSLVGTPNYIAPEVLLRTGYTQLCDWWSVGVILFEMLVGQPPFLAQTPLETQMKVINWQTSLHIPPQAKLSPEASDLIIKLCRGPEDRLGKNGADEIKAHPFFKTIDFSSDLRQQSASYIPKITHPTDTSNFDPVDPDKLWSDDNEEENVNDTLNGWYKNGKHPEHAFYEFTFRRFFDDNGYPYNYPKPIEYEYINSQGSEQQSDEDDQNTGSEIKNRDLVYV
Excerpt: as §1

[4] = target: cellular kinases of SH-SY5Y cells (Homo sapiens, UniProt P07332); conditions: 2µM; SH-SY5Y cells; Labeling Site Lys1; LRADNTLVAVKSCR; read-out: KiNativ in-cell binding, % Inhibition, FES
Excerpt: as §1

[5] = target: cellular kinases of SH-SY5Y cells (Homo sapiens, UniProt P07948); conditions: 2µM; SH-SY5Y cells; labeling site Lys1; peptide VAVKTLKPGTMSVQAFLEEANLMK
Excerpt: as §1

[6] = target: cellular kinases of SH-SY5Y cells (Homo sapiens, UniProt P19784); conditions: 2µM; SH-SY5Y cells; labeling site Lys2; peptide DVKPHNVMIDHQQK
Excerpt: as §1

[7] = target: cellular kinases of SH-SY5Y cells (Homo sapiens, UniProt P31749); conditions: 2µM; SH-SY5Y cells; Labeling Site ATP Loop; GTFGKVILVK; read-out: KiNativ in-cell binding, % Inhibition, AKT1
Excerpt: as §1

[8] = target: cellular kinases of SH-SY5Y cells (Homo sapiens, UniProt P42345); conditions: 2µM; SH-SY5Y cells; Labeling Site ATP; IQSIAPSLQVITSKQRPR; read-out: KiNativ in-cell binding, % Inhibition, MTOR
Excerpt: as §1

[9] = target: cellular kinases of SH-SY5Y cells (Homo sapiens, UniProt P48736); conditions: 2µM; SH-SY5Y cells; Labeling Site ATP; KKPLWLEFK; read-out: KiNativ in-cell binding, % Inhibition, PIK3CG
Excerpt: as §1

[10] = target: cellular kinases of SH-SY5Y cells (Homo sapiens, UniProt P49840); conditions: 2µM; SH-SY5Y cells; labeling site Lys2; peptide DIKPQNLLVDPDTAVLK
Excerpt: as §1

[11] = target: cellular kinases of SH-SY5Y cells (Homo sapiens, UniProt P50613); conditions: 2µM; SH-SY5Y cells; Labeling Site Lys2; DLKPNNLLLDENGVLK; read-out: KiNativ in-cell binding, % Inhibition, CDK7
Excerpt: as §1

[12] = target: cellular kinases of SH-SY5Y cells (Homo sapiens, UniProt Q00534); conditions: 2µM; SH-SY5Y cells; labeling site Lys2; peptide DLKPQNILVTSSGQIK
Excerpt: as §1

[13] = target: cellular kinases of SH-SY5Y cells (Homo sapiens, UniProt Q13555); conditions: 2µM; SH-SY5Y cells; Labeling Site Lys1; TSTQEYAAKIINTK; read-out: KiNativ in-cell binding, % Inhibition, CaMK2g
Excerpt: as §1

[14] = target: cellular kinases of SH-SY5Y cells (Homo sapiens, UniProt Q16566); conditions: 2µM, SH-SY5Y cells
Chain of cellular kinases of SH-SY5Y cells (Homo sapiens, UniProt Q16566) (Q16566 whole entry): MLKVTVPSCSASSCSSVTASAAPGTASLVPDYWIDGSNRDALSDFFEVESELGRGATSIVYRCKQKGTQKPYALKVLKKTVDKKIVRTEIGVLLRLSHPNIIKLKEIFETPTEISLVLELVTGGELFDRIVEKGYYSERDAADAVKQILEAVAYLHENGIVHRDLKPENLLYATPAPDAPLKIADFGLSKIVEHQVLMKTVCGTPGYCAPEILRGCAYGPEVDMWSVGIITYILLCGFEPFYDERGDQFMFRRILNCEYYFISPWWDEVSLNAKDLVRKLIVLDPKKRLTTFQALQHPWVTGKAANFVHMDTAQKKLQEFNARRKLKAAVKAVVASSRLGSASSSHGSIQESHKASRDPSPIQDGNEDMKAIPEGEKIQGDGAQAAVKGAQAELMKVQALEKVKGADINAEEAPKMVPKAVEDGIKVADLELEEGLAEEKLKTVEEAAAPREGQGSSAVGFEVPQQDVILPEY
Excerpt: as §1

[15] = target: cellular kinases of SH-SY5Y cells (Homo sapiens, UniProt Q16584); conditions: 2µM; SH-SY5Y cells; labeling site Lys2; peptide DLKSNNILLLQPIESDDMEHK
Excerpt: as §1

[16] = target: T4, cellular kinases of SH-SY5Y cells (Homo sapiens, UniProt Q16644); conditions: 2µM; SH-SY5Y cells; Labeling Site ATP Loop; QVLGLGVNGKVLECFHR; read-out: KiNativ in-cell binding, % Inhibition, MAPKAPK3
T4 construct: endogenous in cells; host or cells: SH-SY5Y
Excerpt: as §1

[17] = target: T5, cellular kinases of SH-SY5Y cells (Homo sapiens, UniProt Q7RTN6); conditions: 2µM; SH-SY5Y cells; Labeling Site Activation Loop; YSVKVLPWLSPEVLQQNLQGYDAK; read-out: KiNativ in-cell binding, % Inhibition, STRADA
T5 construct: endogenous in cells; host or cells: SH-SY5Y
Excerpt: as §1

[18] = target: T6, cellular kinases of SH-SY5Y cells (Homo sapiens, UniProt Q8IVH8); conditions: 2µM, SH-SY5Y cells, read-out: KiNativ in-cell binding, % Inhibition, MAP4K3
T6 construct: endogenous in cells; host or cells: SH-SY5Y
T6 sequence (Q8IVH8 whole entry): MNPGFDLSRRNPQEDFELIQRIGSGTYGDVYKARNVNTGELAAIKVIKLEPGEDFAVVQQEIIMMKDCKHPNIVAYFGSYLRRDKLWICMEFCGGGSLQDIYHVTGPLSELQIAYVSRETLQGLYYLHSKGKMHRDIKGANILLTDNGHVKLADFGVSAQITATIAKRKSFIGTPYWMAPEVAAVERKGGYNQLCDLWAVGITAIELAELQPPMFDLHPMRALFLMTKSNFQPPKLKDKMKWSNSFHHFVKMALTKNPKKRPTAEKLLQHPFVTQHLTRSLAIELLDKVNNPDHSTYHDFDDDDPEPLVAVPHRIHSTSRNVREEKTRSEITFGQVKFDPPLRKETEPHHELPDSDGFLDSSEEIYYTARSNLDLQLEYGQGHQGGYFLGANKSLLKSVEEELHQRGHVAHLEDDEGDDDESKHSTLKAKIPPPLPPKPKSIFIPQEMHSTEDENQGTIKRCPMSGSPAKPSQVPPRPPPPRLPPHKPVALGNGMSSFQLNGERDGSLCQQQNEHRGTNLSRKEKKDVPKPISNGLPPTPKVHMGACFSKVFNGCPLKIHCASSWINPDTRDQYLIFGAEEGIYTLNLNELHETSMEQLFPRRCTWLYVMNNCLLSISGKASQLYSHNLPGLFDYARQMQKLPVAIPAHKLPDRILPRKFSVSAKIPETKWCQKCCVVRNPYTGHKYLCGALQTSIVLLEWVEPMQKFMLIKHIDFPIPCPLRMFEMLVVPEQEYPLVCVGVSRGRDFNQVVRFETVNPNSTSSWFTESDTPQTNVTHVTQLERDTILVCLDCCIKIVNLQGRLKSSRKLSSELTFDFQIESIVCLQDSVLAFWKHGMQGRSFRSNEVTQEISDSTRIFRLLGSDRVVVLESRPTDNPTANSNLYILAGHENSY
Excerpt: as §1

[19] = target: cellular kinases of SH-SY5Y cells (Homo sapiens, UniProt Q8NEB9); conditions: 2µM, SH-SY5Y cells
Chain of cellular kinases of SH-SY5Y cells (Homo sapiens, UniProt Q8NEB9) (Q8NEB9 whole entry): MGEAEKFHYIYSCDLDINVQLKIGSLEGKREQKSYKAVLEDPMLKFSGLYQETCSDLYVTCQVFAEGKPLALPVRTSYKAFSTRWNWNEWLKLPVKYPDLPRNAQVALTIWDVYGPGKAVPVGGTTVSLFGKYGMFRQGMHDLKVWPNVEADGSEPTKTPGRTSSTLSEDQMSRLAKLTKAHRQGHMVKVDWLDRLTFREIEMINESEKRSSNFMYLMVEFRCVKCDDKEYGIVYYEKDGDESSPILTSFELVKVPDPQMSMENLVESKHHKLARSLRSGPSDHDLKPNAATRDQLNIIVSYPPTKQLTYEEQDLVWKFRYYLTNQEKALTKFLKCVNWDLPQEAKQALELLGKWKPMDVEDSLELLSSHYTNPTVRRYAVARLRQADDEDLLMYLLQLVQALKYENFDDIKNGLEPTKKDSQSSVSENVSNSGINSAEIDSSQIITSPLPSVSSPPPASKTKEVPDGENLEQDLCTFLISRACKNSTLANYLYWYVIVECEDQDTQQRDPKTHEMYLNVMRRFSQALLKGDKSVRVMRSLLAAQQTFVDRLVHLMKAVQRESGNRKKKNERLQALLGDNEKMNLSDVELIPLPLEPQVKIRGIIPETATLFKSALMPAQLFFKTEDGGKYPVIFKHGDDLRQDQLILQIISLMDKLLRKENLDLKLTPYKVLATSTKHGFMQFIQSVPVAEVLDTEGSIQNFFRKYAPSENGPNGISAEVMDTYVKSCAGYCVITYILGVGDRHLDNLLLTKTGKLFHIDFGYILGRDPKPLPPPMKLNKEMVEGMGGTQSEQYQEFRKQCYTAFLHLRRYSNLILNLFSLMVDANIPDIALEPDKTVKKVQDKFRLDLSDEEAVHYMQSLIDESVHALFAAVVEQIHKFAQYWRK
Excerpt: as §1

[20] = target: T7, cellular kinases of SH-SY5Y cells (Homo sapiens, UniProt Q9H2G2); conditions: 2µM, SH-SY5Y cells
T7 construct: endogenous in cells; host or cells: SH-SY5Y
T7 sequence (Q9H2G2 whole entry): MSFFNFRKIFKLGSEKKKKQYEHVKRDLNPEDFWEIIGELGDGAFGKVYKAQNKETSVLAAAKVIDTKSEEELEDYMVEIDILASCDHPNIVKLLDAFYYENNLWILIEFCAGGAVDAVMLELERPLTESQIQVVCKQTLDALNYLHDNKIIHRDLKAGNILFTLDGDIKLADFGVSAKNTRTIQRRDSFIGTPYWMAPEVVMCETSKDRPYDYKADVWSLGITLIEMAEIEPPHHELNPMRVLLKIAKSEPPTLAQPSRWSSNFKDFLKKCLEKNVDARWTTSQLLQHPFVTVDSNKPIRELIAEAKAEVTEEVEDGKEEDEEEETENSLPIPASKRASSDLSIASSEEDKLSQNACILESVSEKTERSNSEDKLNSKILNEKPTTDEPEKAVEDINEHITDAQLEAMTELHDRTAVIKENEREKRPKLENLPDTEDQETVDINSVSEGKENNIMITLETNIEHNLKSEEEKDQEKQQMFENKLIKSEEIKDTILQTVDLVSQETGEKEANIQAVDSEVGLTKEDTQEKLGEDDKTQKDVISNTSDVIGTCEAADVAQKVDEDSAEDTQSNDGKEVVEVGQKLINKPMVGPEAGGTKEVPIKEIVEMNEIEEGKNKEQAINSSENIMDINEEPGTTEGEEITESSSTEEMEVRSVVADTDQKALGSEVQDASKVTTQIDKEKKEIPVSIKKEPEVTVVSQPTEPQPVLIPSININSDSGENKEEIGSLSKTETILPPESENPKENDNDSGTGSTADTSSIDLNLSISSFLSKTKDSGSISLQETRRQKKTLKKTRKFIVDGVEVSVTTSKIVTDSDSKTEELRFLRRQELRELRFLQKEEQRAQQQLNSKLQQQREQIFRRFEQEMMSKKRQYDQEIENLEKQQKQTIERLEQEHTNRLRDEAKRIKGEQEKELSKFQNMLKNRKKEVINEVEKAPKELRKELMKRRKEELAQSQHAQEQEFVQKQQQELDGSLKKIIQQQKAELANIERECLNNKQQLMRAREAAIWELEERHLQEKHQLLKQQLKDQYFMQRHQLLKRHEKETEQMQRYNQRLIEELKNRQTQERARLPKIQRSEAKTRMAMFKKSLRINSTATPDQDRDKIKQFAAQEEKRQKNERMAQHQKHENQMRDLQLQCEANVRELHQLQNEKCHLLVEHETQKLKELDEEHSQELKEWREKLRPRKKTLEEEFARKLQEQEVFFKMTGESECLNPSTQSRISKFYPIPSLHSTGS
Excerpt: as §1

[21] = target: T8, cellular kinases of SH-SY5Y cells (Homo sapiens, UniProt Q9Y2H1); conditions: 2µM, SH-SY5Y cells
T8 construct: endogenous in cells; host or cells: SH-SY5Y
T8 sequence (Q9Y2H1 whole entry): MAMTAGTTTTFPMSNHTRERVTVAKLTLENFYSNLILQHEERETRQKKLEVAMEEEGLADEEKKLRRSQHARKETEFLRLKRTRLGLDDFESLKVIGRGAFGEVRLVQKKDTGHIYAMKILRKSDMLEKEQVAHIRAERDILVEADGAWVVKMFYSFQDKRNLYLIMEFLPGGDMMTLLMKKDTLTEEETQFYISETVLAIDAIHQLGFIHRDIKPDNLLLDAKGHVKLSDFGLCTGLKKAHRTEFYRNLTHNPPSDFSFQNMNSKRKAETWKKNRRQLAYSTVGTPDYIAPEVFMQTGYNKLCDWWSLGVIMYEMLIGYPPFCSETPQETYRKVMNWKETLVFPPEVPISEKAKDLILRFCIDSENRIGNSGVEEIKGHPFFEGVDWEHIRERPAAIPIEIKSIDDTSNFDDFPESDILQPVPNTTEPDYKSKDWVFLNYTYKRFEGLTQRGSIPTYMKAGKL
Excerpt: as §1

Cc1cccc(-c2nc(Nc3ccc4ncsc4c3)c3ccccc3n2)n1 [NK140]
KiNativ in-cell binding, MAP2K7 [1]: -84.9 | inhibition at 2 µM [2]: -29.6% | inhibition at 2 µM ([3]; Labeling Site Lys1, ALYATKTLR): 20.9% | inhibition at 2 µM ([3]; Labeling Site Lys2, DIKPDNILIDR): 19.3% | inhibition at 2 µM [4]: 17.1% | KiNativ in-cell binding, LYN [5]: -32.9 | KiNativ in-cell binding, CSNK2A2 [6]: -67.6 | inhibition at 2 µM [7]: 21.9% | inhibition at 2 µM [8]: 18.4% | inhibition at 2 µM [9]: 27.6% | KiNativ in-cell binding, GSK3A [10]: 7.1 | inhibition at 2 µM [11]: 56.5% | KiNativ in-cell binding, CDK6 [12]: -30.7 | inhibition at 2 µM [13]: 30.4% | KiNativ in-cell binding, CaMK4 ([14]; labeling site Lys1, peptide GTQKPYALKVLK): -10.9 | KiNativ in-cell binding, CaMK4 ([14]; labeling site Lys2, peptide DLKPENLLYATPAPDAPLK): -28.9 | KiNativ in-cell binding, MAP3K11 [15]: -55.2 | inhibition at 2 µM [16]: 16.2% | inhibition at 2 µM [17]: 48.6% | inhibition at 2 µM ([18]; Labeling Site Lys1, NVNTGELAAIKVIK): 29.8% | inhibition at 2 µM ([18]; Labeling Site Lys2, DIKGANILLTDNGHVK): 20.5% | inhibition at 2 µM ([19]; Labeling Site ATP, TEDGGKYPVIFKHGDDLRQDQLILQIISLMDK, read-out: KiNativ in-cell binding, % Inhibition, PIK3C3): -69% | KiNativ in-cell binding, PIK3C3 ([19]; labeling site ATP, peptide TEDGGKYPVIFKHGDDLR): -30.4 | inhibition at 2 µM ([20]; Labeling Site Lys1, AQNKETSVLAAAKVIDTK, read-out: KiNativ in-cell binding, % Inhibition, SLK (SLK OR FYN/SLK)): 16.4% | inhibition at 2 µM ([20]; Labeling Site Lys2, DLKAGNILFTLDGDIK, read-out: KiNativ in-cell binding, % Inhibition, SLK): 26.7% | inhibition at 2 µM ([21]; Labeling Site Lys1, DTGHIYAMKILR, read-out: KiNativ in-cell binding, % Inhibition, STK38L/NDR2): -47.2% | inhibition at 2 µM ([21]; Labeling Site Lys2, DIKPDNLLLDAK, read-out: KiNativ in-cell binding, % Inhibition, NDR2): -39.9%
